Molecules are shown by their SMILES.

The term melting point denotes the temperature, or range, at which the solid turns liquid.

Regarding `N#Cc1ccc(/C=C/C=C/C=O)cc1`, the melting point fell in the range of 147 to 150 °C.
On to `CCOC(=O)CCCCn1cnc2ccncc21`, for which the melting point was in the range of 45 to 47 °C.
Under `Nc1ccc(C(=O)O)cc1S(N)(=O)=O` stands 214 to 219 °C; under `CCOC(=O)CCCn1c(Nc2cnc(N3CCCC3)cc2C)nc2c(Cl)ccc(C(CC)CC)c21`, 195 to 196 °C; under `Nc1ccccc1NC(=O)c1ccc(CNC(=O)c2[nH]c(-c3ccsc3)cc2-c2ccc(O)cc2)cc1`, 135 to 137 °C.
Under `O=C(Nc1ccc(C(F)(F)F)cc1)NC1CCOCC1` stands 196 to 198 °C.
`CCOC(=O)c1c(N2CCN(c3ccccc3)CC2)n[nH]c1C` gave a melting point of 137 to 138 °C.
Compound `NC(=O)Cn1cc(-c2ccccc2)c2cc(Cl)ccc21` yielded a melting point of 220 to 221 °C.
The compound `CC(=O)Oc1cccc(CCNC(=O)/C=C/c2cccnc2)c1` came in with a melting point of 99 °C.
Under `C[C@H](NP(=O)(Cc1ccccc1)Cc1ccccc1)C(=O)N1CCC[C@H]1C(=O)N[C@H](C)C(=O)OCc1ccccc1` stands 82 to 85 °C; under `CCOC(=O)c1ccc(NCc2cc3c(cc2O)CCCO3)cc1`, 150 °C; under `O=c1cccc(C(F)F)[nH]1`, 125 to 127 °C.
The result for `CCOC(=O)CC[C@H](NC(=O)c1ccc2c(c1)CCN2)C(=O)OCC` reads 96 to 97 °C.
In turn, `CCOC(=O)C1=C(NC(=O)Nc2cc(OC(C)C)c(Cl)cc2F)CCC1` registered a melting point of 166 to 169 °C.
With `O=C(C(=O)N1CCC(N2CCCCC2)CC1)c1ccc2n1Cc1ccccc1N(C(=O)c1ccc(C3CCCCC3)cc1)C2`, the melting point was 190 to 195 °C.
Compound `CCOC(=O)/C=C(C)/C=C/C=C(\C)C1=Cc2cc(C34CC5CC(CC(C5)C3)C4)ccc2OC1` came in with a melting point of 178 to 179 °C.
Under `CC(SC1COC(c2ccc(C(=O)Nc3ccc(C#N)cc3)cc2F)OC1)C(O)(Cn1cncn1)c1ccc(F)cc1F` (stereo not drawn) stands 110 °C; under `O=Cc1cccc2c1[nH]c1c3cc(Br)ccc3oc21`, 280 to 281 °C.
For the compound `CC(C)(C#N)ON1C(C)(C)CNC(=O)CC1(C)C`, the melting point lay in the range of 130 to 134 °C.
The result for `CCCC(CC)(C(=O)N(C)C)n1cc(C)c(-c2ccccc2)n1` (stereo not drawn) reads 147 to 148 °C; that for `Cc1cnc(C2(CCCCN3CCC(N4Cc5ccccc5C4=O)CC3)c3ccccc3-c3ccccc32)s1`, 146 to 148 °C; that for `CC(C)c1nc(-c2ccc(S(C)(=O)=O)cc2)c(-c2ccc(F)cc2)[nH]1`, 214 to 215 °C.
The compound `Cc1oc(-c2ccc3ccccc3c2)nc1COc1ccc(COc2ncccc2C#N)cc1` came in with a melting point of 145 to 146 °C.
On to `O=c1c(OCCO)c(-c2ccc(OCc3ccccc3)c(OCc3ccccc3)c2)oc2cc(OCc3ccccc3)ccc12`, for which the melting point amounted to 137 °C.
The compound `COc1cc2c(CC(=O)O)c(C)n(C(=O)c3ccc(Cl)s3)c2cc1F` came in with a melting point of 169 °C.
Compound `COC(=O)CN(C)c1nc(-c2ccc(Br)cc2)c(C=O)s1` displayed a melting point of 105 to 106 °C.
Compound `CC(=O)SCCNC(=O)CCNC(=O)OCc1ccccc1` came in with a melting point of 83 to 108 °C.
`[N-]=[N+]=C1C(=O)Oc2ccc(S(=O)(=O)Cl)cc2C1=O` came in with a melting point of 185 °C.
In the case of `CC(C)c1nc(N)cc(=O)[nH]1`, the melting point is 229 to 230 °C.
With `CCOCc1nc2c(N)nc3cc(OCCN)ccc3c2n1CC(C)(C)O`, the melting point lay within 163 to 165 °C.
The result for `O=S(=O)(Nc1ccc(C(O)(C(F)(F)F)C(F)(F)F)cc1)c1ccccc1` reads 117 to 118 °C; that for `CNC1CCc2[nH]c3cccc(C)c3c2C1` (stereo not drawn), 163 to 166 °C; that for `CCCCc1oc2ccc(NS(C)(=O)=O)cc2c1C(O)c1ccc(OCCCN(CCCC)CCCC)cc1` (stereo not drawn), 94 °C.
Under `CCCn1c(=O)[nH]c2ccc(C(=O)c3ncc4ccc(C(=O)O)cn34)cc2c1=O` stands 384 °C; under `CCOC(=O)/C=C/c1ccc2oc(Cc3nc(-c4ccccc4)oc3C)cc2c1`, 150 to 151 °C.
On to `O=C1NCCc2c1c1ccccc1n2COCc1ccccc1`, for which the melting point is 133 to 135 °C.
Under `Fc1ccc(-c2nc[nH]c2-c2ccc(F)cc2)cc1` stands 234 to 236 °C; under `CCCCN1CCC(NC(=O)c2ccc(NCc3ccnc4ccccc34)cc2)CC1`, 189 to 190 °C; under `COC(=O)C(C(=O)OC)c1cc(F)cc2c1C(=O)c1cc3ccccc3cc1C2=O`, 225 to 230 °C.
Under `CC(C)CC(CS)C(=O)NCCCCCCCC(=O)N[C@@H](CCCNC(=N)N)C(=O)O` (stereo partly drawn) stands 102 to 130 °C; under `Cn1c(CO)nc2ncccc21`, 130 to 132 °C; under `CS(=O)c1ccccc1C(=O)Nc1ccccc1` (stereo not drawn), 194 to 195 °C.
`Cc1nc(CO)n(C)c1[N+](=O)[O-]`: the melting point lay in the range of 113 to 114 °C.
As to `O=C1NC(Cc2ccc([N+](=O)[O-])c(OCc3ccccc3)c2)C(=O)Nc2ccccc21` (stereo not drawn), the melting point lay within 243 to 245 °C.
`CCOC(=O)c1cc(=O)c2cc(C(C)(C)C)cc(C(C)(C)C)c2o1`: the melting point was in the range of 130 to 132 °C.
For the compound `CC1CCc2c(N3CCCCC3)c(Cl)cc3c(=O)c(C(=O)O)cn1c23` (stereo not drawn), the melting point is 246 to 248 °C.
In turn, `O=C1NCCc2c(-c3ccc(F)cc3F)[nH]c3cccc1c23` gave a melting point of 196 to 197 °C.
In turn, `CCc1cc2c(cc1CC)C(=O)C(N=[N+]=[N-])=CC2=O` showed a melting point of 74 to 76 °C.
The result for `OCC=C[C@@H]1O[C@H]1C#CC#CC#Cc1ccccc1` (relative stereo) reads 65 to 66 °C; that for `COc1ccc(N2CCN(c3c(C)c(C)c4c(c3C)C(O)C(C)(C)O4)CC2)cc1OC` (stereo not drawn), 150 to 151 °C; that for `Cc1ccc(NC(=O)N(C)Cc2cccc3c2CN(C2CCC(=O)NC2=O)C3=O)cc1Cl` (stereo not drawn), 248 to 250 °C.
Under `COC(=O)COc1cccc(CCNC(=O)/C=C/c2cccnc2)c1` stands 102 to 104 °C; under `CC(=O)C(=O)Oc1ccc(NCc2c(F)c(F)c(C(F)(F)F)c(F)c2F)cc1C(=O)O`, 128 °C; under `CC(=O)N(c1cccc(C(=O)O)c1)c1cc(C(C)(C)C)c(O)c(C(C)(C)C)c1`, 204 to 206 °C.
Under `CS(=O)(=O)c1nc2cnc3cccnc3c2n1Cc1ccccc1` stands 187 to 191 °C; under `CC(O)Cc1cccc(Nc2nccc(-c3sc(N)nc3-c3ccccc3)n2)c1` (stereo not drawn), 219 to 220 °C.
For `CCCOc1ccccc1-c1nc(O)cc(C(=O)OCC)n1`, the melting point lay within 137 to 138 °C.
`CCCc1c(OCCOc2ccc([N+](=O)[O-])cc2)ccc(C(C)=O)c1O`: the melting point was in the range of 124 to 125 °C.
Turning to `COCc1ccc(-c2ncccc2C#N)cc1`, the melting point turned out to be 74 °C.
In the case of `COc1cc(C=C(C#N)C(N)=O)c([N+](=O)[O-])cc1OC`, the melting point fell in the range of 265 to 266 °C.
The result for `CC(C)(C)OC(=O)/C=C1\CCc2cccc3c2N1CC3` reads 105 to 107 °C; that for `NNC(=O)C(O)c1cc(F)cc(F)c1` (stereo not drawn), 119 °C; that for `O=C(O)CCc1cc2nc(C(F)(F)F)ccc2n1S(=O)(=O)c1ccccc1`, 180 °C.

The values above are taken from a melting point compilation (Tetko et al.; mined from patent text by program, amines drawn as free bases though some values may be those of a salt).
